Measured values as given in patent US10406246B2, “Double-labeled probe for molecular imaging and use thereof” (DEUTSCHES KREBSFORSCHUNGSZENTRUM, priority 2013, dated 2019).

Columns and labels:
PSMA = target: T1, PSMA (Homo sapiens, UniProt Q04609); assay: in vitro competitive cell binding assay on LNCaP cells against 68Ga-labeled [Glu-urea-Lys(Ahx)]2-HBED-CC; conditions: 12 concentrations of analyte 0-5000 nM, mean of three experiments
T1 construct: host or cells: LNCaP cells
Protocol: (§1) The competitive cell binding assay and internalization experiments were performed as described previously (Eder et al. 2012). Briefly, the respective cells (10^5 per well) were incubated with the radiometal (^68Ga-labeled [Glu-urea-Lys(Ahx)]2-HBED-CC (Schafer et al. 2012)) in the presence of 12 different concentrations of analyte (0-5000 nM, 100 μL/well). After incubation, washing was carried out using a multiscreen vacuum manifold (Millipore, Billerica, Mass.). Cell-bound radioactivity was measured using a gamma counter (Packard Cobra II, GMI, Minnesota, USA). The 50% inhibitory concentration (IC50) was calculated by fitting the data using a nonlinear regression algorithm (GraphPad Software). Experiments were performed three times.
as §1, with “al.,” for “al.”, “radioligand” for “radiometal”, “(Schäfer” for “(Schafer”, “The 50% inhibitory concentration (IC50) was calculated by fitting the data using a nonlinear regression algorithm (GraphPad Software). Experiments were performed three times.” left out

[1] = system: PSMA positive LNCaP tumors; assay: organ distribution in LNCaP tumor bearing xenografts; format: in vivo, BALB/c nu/nu mice; conditions: 68Ga-labeled, 1 h post injection; for Organ distribution, Blood, Mean / Organ distribution, Brain, Mean / Organ distribution, Heart, Mean / Organ distribution, Intestine, Mean / Organ distribution, Kidney, Mean / Organ distribution, Liver, Mean / Organ distribution, Lung, Mean / Organ distribution, Muscle, Mean / Organ distribution, Spleen, Mean / Organ distribution, Tumor (tumor uptake), Mean: 0.06 nmol, tail vein, n=3; for distribution profile in healthy organs: both compounds compared with each other; for Organ distribution, Tumor (tumor uptake), Mean: PSMA positive LNCaP tumors
Protocol: 7- to 8-week-old male BALB/c nu/nu mice (Charles River Laboratories) were subcutaneously inoculated into the right trunk with 5×10^6 cells of LNCaP (in 50% Matrigel; Becton Dickinson, Heidelberg, Germany). The tumors were allowed to grow until approximately 1 cm^3 in size. The radiolabeled compounds were injected into the tail vein (approx. 1 MBq per mouse; 0.06 nmol). At 1 h after injection the animals were sacrificed. Organs of interest were dissected, blotted dry, and weighed. The radioactivity was measured using a gamma counter and calculated as % ID/g.

LNCaP tumor [2] = assay: comparative PET imaging of 68Ga-labeled PSMA-HBED-CC conjugates; format: in vivo; conditions: 1 hour post injection, LNCaP tumor-bearing nude mice
Protocol: The ^68Ga-labeled compounds PSMA-HBED-CC-FITC (the compound depicted above), PSMA-Ahx-HBED-CC-cyanine 5.5 (the compound depicted above, of which the mass was determined by mass spectrometry as being M(calculated)=1642.98; M(found)=1642.7) and PSMA-Ahx-HBED-CC (the corresponding compound without cyanine 5.5) and were injected into an LNCaP tumor-bearing nude mice. One hour post injection, […] was performed.

LNCaP cells = assay: specific cell uptake, cell surface binding and internalization; format: cell-based, human; conditions: 68Ga-labeled
Protocol: To determine the specific cell uptake and internalization, 10^5 cells were seeded in poly-L-lysine coated 24-well cell culture plates 24 h before incubation. After washing, the cells were incubated with 25 nM of the radiolabeled compounds for 45 min at 37° C. and at 4° C., respectively. Specific cellular uptake was determined by competitive blocking with 2-(phosphonomethyl)pentanedioic acid (500 μM final concentration, PMPA, Axxora, Loerrach, Germany). Cellular uptake was terminated by washing 4 times with 1 mL of ice-cold PBS. Cells were subsequently incubated twice with 0.5 mL glycine-HCl in PBS (50 mM, pH=2.8) for 5 min to remove the surface-bound fraction. The cells were washed with 1 mL of ice-cold PBS and lysed using 0.3 N NaOH (0.5 mL). The surface-bound and the internalized fractions were measured in a gamma counter. The cell uptake was calculated as percent of the initially added radioactivity bound to 10^6 cells [% ID/10^6 cells].

LNCaP tumor [3] = assay: comparative organ distribution versus Banerjee reference compounds; format: in vivo; conditions: 1 hour post injection, LNCaP tumor-bearing nude mice
Protocol: PSMA-Ahx-HBED-CC-FITC (as shown above) was compared with a reference compound published by Banerjee et al. (Banerjee et al., 2011, Angew Chem Int Ed Engl. 50(39):9167-9170, page 6, scheme 1, final product) and the corresponding compound without the fluorescent dye IRDye800CW bearing a free amino group of the lysyl moiety the dye IRDye800CW can be bound to. These compounds were injected into LNCaP tumor-bearing nude mice.

T1 sequence (Q04609 whole entry): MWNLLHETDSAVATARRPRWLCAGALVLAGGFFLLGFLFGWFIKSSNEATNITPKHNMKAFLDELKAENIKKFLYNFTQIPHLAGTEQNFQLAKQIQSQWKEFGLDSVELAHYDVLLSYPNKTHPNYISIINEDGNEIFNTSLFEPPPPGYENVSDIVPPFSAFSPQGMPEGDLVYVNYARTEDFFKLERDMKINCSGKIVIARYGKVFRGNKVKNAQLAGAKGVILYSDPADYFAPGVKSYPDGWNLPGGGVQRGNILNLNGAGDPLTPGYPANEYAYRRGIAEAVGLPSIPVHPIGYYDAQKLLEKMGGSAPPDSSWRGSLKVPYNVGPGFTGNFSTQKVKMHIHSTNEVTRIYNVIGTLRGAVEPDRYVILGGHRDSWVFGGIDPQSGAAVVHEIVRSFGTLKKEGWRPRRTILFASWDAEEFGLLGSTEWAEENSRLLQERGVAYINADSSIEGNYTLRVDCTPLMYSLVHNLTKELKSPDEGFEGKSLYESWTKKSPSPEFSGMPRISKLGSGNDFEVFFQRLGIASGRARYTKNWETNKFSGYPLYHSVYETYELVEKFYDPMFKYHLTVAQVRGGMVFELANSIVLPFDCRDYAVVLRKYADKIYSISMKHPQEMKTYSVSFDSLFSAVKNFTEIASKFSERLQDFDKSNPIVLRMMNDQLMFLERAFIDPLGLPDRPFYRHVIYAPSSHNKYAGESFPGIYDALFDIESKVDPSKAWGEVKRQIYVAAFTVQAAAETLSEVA

SMILES	IC50 (PSMA) [nM]	Organ distribution, Blood, Mean [1] [% ID/g]	Organ distribution, Brain, Mean [1] [% ID/g]	Organ distribution, Heart, Mean [1] [% ID/g]	Organ distribution, Intestine, Mean [1] [% ID/g]	Organ distribution, Kidney, Mean [1] [% ID/g]	Organ distribution, Liver, Mean [1] [% ID/g]	Organ distribution, Lung, Mean [1] [% ID/g]	Organ distribution, Muscle, Mean [1] [% ID/g]	Organ distribution, Spleen, Mean [1] [% ID/g]	distribution profile in healthy organs [1]	Organ distribution, Tumor (tumor uptake), Mean [1] [% ID/g]	Organ distribution, Tumor (tumor uptake), Mean ([1]; listed as Glu-urea-Lys-HBED-CC) [% ID/g]	distribution of radioactivity and tumor uptake (PET imaging) (LNCaP tumor [2])	internalization by LNCaP cells (LNCaP cells; 25 nM, 45 min, competitive blocking with 500 μM 2-PMPA (P<0.001))	cell uptake and internalization profile versus Glu-urea-Lys-HBED-CC (LNCaP cells; LNCaP cells)	Organ distribution, Tumor (tumor uptake), Mean ([1]; listed as Glu-urea-Lys-HBED-CC-dye) [% ID/g]	tumor uptake versus Banerjee reference compounds (LNCaP tumor [3])
O=C(O)CCc1ccc(O)c(CN(CCN(CC(=O)O)Cc2cc(CCC(=O)NCCCCCC(=O)NCCCC[C@H](NC(=O)N[C@@H](CCC(=O)O)C(=O)O)C(=O)O)ccc2O)CC(=O)O)c1 [Glu-urea-Lys(Ahx)-HBED-CC, reference compound]	9.82 ± 1.26	0.53	0.40	0.83	1.14	139.44	1.43	2.36	1.00	17.88	comparable	4.89±1.34	4.89	comparable distribution of radioactivity and tumor uptake				
O=C(O)CCC(NC(=O)NC(CCCCNC(=O)CCc1ccc(O)c(CN(CCN(CC(=O)O)Cc2cc(CCC(=O)NCCOCCOCCNC(=S)Nc3ccc4c(c3)C(=O)OC43c4ccc(O)cc4Oc4cc(O)ccc43)ccc2O)CC(=O)O)c1)C(=O)O)C(=O)O (centres unmarked) [Glu-urea-Lys-HBED-CC-Fluorescein]	11.1 ± 1.16	1.34	0.31	2.22	0.81	138.18	1.71	3.09	1.84	45.24	comparable	10.86±0.94		comparable distribution of radioactivity and tumor uptake	specifically internalized	not considerably changed	10.86	
O=C(O)CCC(NC(=O)NC(CCCCNC(=O)CCCCCNC(=O)CCc1ccc(O)c(CN(CCN(CC(=O)O)Cc2cc(CCC(=O)NCCOCCOCCNC(=S)Nc3ccc4c(c3)C(=O)OC43c4ccc(O)cc4OC4C=C(O)C=CC43)ccc2O)CC(=O)O)c1)C(=O)O)C(=O)O (centres unmarked) [PSMA-Ahx-HBED-CC-FITC]																		significantly improved
CN1/C(=C/C=C/C=C/C2=[N+](CCCCCC(=O)NCCOCCOCCNC(=O)CCc3ccc(O)c(CN(CCN(CC(=O)O)Cc4cc(CCC(=O)NCCCCCC(=O)NCCCCC(NC(=O)NC(CCC(=O)O)C(=O)O)C(=O)O)ccc4O)CC(=O)O)c3)c3ccc4ccccc4c3C2(C)C)C(C)(C)c2c1ccc1ccccc21 (centres unmarked) [PSMA-Ahx-HBED-CC-cyanine 5.5]														comparable distribution of radioactivity and tumor uptake				
